From US20090048332A1, “Natural Novel Antioxidants” (HEJ Research Insitute, priority 2007, published 2009)

Test: superoxide radical scavenging assay (SOR; NADH/PMS/NBT)
Assay type: biochemical
Settings: for IC50: super oxide scavenging assay, formazan absorbance at 560 nm after three minutes, concentration needed to scavenge 50% of super oxide radicals, read-out: SOI (IC50 ± SEM); for IC50 compared with propyl gallate standard: comparison in words, refers to Table 1; for radical scavenging activity in the SOR assay: qualitative statement
Description: The reaction mixture contained 10 μL of test samples (1 mM in dimethylsulfoxide), 90 μL of 0.1 M phosphate buffer (pH 7.4), 40 μL of (280 μM) β-nicotanamide adenine dinucleotide (NADH), 40 μL of (80 μM) nitro blue tetrazolium (NBT). The reaction was initiated by the addition of 20 μL of (8 μM) phenazine methosulphate (PMS). The solutions of NADH, NBT and PMS were prepared in phosphate buffer. The formation of superoxide was monitored by measuring the absorbance of the blue formazan dye after three minutes at 560 nm against the corresponding blank solutions in microtitre plate using Elisa (multiple reader spectra Max-3400). IC50 value represents concentration of compounds needed to scavenge 50% of super oxide radicals. Propyl gallate was used as a positive control. All chemicals used were of analytical grade (Sigma Chemicals, USA).

Row | SMILES | IC50 [µM] | SOR activity on per-methylation (permethylated derivatives of the depsides) | IC50 compared with propyl gallate standard | radical scavenging activity in the SOR assay
1 | CCCOC(=O)c1cc(O)c(O)c(O)c1 [propyl gallate, Propyl gallate, reference compound] | 106 ± 1.7 |  |  | 
2 | COC(=O)c1c(C)cc(OC(=O)c2c(C)cc(OC)cc2OC)cc1OC [permethylated lecanoric acid] |  | lost |  | 
3 | CCCCCc1c2c(cc(O)c1C(=O)O)OC(=O)c1c(cc(OC)cc1C(=O)CCCC)O2 [Lobaric acid, lobaric acid] | 97.9 ± 1.6 |  | lower than the propyl gallate standard | exceptionally high percentage of radical scavenging activity
4 | Cc1cc(OC(=O)c2c(C)cc(O)cc2O)cc(O)c1C(=O)OC[C@H](O)[C@H](O)CO [Erythrin, erythrin] | 127 ± 0.97 |  |  | exceptionally high percentage of radical scavenging activity
5 | COc1ccc(O)c(C(C)(C)C)c1 [BHA, butylated hydroxy anisole, reference compound] | 96 ± 1.75 |  |  | 
6 | Cc1cc(OC(=O)c2c(C)cc(O)cc2O)cc(O)c1C(=O)O [Lecanoric acid, lecanoric acid] | 91.5 ± 2.1 |  | lower than the propyl gallate standard | exceptionally high percentage of radical scavenging activity
7 | CCCc1cc(OC)cc(O)c1C(=O)Oc1c(OC)cc(CCC)c(C(=O)O)c1O [Sekikiac acid, sekikaic acid] | 81.97 ± 0.31 |  | lower than the propyl gallate standard | exceptionally high percentage of radical scavenging activity
